Assay results: patent US8962856B2, “Modulators of cystic fibrosis transmembrane conductance regulator” (Vertex Pharmaceuticals Incorporated, priority 2005, dated 2015)

Biological target: T1, ΔF508-CFTR (Homo sapiens, UniProt P13569, DEL508-508)
T1 construct: expressed in transfected cells
Assay: Membrane potential optical assay for ΔF508-CFTR correction
Type: cell-based
Settings: for % Efficacy / Emax: relative efficacy
Description: Assays for Detecting and Measuring ΔF508-CFTR Correction Properties of Compounds
I) Membrane Potential Optical Methods for Assaying ΔF508-CFTR Modulation Properties of Compounds
The optical membrane potential assay utilized voltage-sensitive FRET sensors described by Gonzalez and Tsien (See Gonzalez, J. E. and R. Y. Tsien (1995) “Voltage sensing by fluorescence resonance energy transfer in single cells” Biophys J 69(4): 1272-80, and Gonzalez, J. E. and R. Y. Tsien (1997) “Improved indicators of cell membrane potential that use fluorescence resonance energy transfer” Chem Biol 4(4): 269-77) in combination with instrumentation for measuring fluorescence changes such as the Voltage/Ion Probe Reader (VIPR) (See, Gonzalez, J. E., K. Oades, et al. (1999) “Cell-based assays and instrumentation for screening ion-channel targets” Drug Discov Today 4(9): 431-439).
These voltage sensitive assays are based on the change in fluorescence resonant energy transfer (FRET) between the membrane-soluble, voltage-sensitive dye, DiSBAC2(3), and a fluorescent phospholipid, CC2-DMPE, which is attached to the outer leaflet of the plasma membrane and acts as a FRET donor. Changes in membrane potential (Vm) cause the negatively charged DiSBAC2(3) to redistribute across the plasma membrane and the amount of energy transfer from CC2-DMPE changes accordingly. The changes in fluorescence emission were monitored using VIPR™ II, which is an integrated liquid handler and fluorescent detector designed to conduct cell-based screens in 96- or 384-well microtiter plates.
NIH3T3 mouse fibroblasts stably expressing ΔF508-CFTR are used for optical measurements of membrane potential. The cells are maintained at 37° C. in 5% CO2 and 90% humidity in Dulbecco's modified Eagle's medium supplemented with 2 mM glutamine, 10% fetal bovine serum, 1×NEAA, β-ME, 1× pen/strep, and 25 mM HEPES in 175 cm^2 culture flasks. For all optical assays, the cells were seeded at 30,000/well in 384-well matrigel-coated plates and cultured for 2 hrs at 37° C. before culturing at 27° C. for 24 hrs. for the potentiator assay. For the correction assays, the cells are cultured at 27° C. or 37° C. with and without compounds for 16-24 hoursB) Electrophysiological Assays for assaying ΔF508-CFTR modulation properties of compounds

T1 sequence (P13569 with tags, fused parts or gaps DEL508-508): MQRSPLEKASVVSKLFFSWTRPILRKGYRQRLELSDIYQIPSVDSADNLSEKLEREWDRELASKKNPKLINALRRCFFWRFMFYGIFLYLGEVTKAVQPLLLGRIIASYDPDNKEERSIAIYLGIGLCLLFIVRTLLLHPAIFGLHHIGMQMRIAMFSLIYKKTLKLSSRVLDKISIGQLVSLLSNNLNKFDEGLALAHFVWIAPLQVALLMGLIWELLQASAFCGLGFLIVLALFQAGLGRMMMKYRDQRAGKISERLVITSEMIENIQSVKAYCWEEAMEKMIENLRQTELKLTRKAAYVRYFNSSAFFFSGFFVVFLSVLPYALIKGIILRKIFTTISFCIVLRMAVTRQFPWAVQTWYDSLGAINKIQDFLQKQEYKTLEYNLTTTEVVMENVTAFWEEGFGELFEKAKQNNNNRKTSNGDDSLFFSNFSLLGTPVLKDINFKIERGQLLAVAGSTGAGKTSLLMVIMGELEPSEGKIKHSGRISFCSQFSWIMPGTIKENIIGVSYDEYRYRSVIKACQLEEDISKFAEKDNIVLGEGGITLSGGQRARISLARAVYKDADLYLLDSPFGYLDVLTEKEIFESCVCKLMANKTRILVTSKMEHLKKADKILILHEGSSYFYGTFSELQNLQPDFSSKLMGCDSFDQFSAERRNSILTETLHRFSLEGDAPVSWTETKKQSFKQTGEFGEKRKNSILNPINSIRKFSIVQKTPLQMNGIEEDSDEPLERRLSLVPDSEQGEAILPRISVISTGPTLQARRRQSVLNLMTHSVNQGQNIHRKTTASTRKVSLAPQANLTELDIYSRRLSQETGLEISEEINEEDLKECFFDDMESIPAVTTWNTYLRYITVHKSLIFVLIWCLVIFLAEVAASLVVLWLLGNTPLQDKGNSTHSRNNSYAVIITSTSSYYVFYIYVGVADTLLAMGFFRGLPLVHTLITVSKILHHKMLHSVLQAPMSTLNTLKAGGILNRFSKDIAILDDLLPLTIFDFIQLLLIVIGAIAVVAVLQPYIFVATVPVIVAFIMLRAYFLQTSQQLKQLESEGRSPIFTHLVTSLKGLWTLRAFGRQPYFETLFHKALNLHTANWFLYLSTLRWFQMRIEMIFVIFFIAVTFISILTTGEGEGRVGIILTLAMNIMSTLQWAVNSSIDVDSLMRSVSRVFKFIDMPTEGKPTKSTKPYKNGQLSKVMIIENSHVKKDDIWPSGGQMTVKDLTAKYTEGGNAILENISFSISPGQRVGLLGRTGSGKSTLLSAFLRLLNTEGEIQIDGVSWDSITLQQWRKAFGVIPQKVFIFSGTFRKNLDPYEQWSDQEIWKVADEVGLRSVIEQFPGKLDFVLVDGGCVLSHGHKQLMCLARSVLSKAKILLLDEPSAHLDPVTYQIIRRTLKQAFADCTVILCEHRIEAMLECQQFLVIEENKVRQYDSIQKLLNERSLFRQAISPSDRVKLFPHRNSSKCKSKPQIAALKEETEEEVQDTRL

EC50 [µM] | % Efficacy | Emax [%] | Compound
< 2 | – | > 100 | O=C(Nc1ncc([C@H](c2ccc(Cl)cc2F)N2CC[C@@H](O)C2)s1)C1(c2ccc3c(c2)OCO3)CC1 [Compound 3]
< 2 | – | > 100 | O=C(Nc1ncc([C@H](c2ccc(Cl)cc2F)N2CC[C@@H](O)C2)s1)C1(c2ccc3c(c2)OC(F)(F)O3)CC1 [Compound 4]
< 2 | – | > 100 | O=C(Nc1ncc([C@H](c2ccc(Cl)c(Cl)c2)N2CC[C@@H](O)C2)s1)C1(c2ccc3c(c2)OCO3)CC1 [Compound 5]
< 2 | – | > 100 | Cc1nc(NC(=O)C2(c3ccc4c(c3)OCO4)CC2)sc1[C@@H](c1ccccc1Cl)N1CC[C@H](O)C1 [Compound 7]
– | – | > 100 | O=C(Nc1ncc(C(c2ccccc2Cl)N2CC[C@@H](O)C2)s1)C1(c2ccc3c(c2)OC(F)(F)O3)CC1 (some centres unmarked) [Compound 11]
< 2 | – | – | O=C(Nc1ncc([C@H](c2ccccc2Cl)N2CC[C@@H](O)C2)s1)C1(c2ccc3c(c2)OC(F)(F)O3)CC1 [Compound 11]
< 2 | – | > 100 | O=C(Nc1ncc([C@@H](c2ccccc2Cl)N2CC[C@@H](O)C2)s1)C1(c2ccc3c(c2)OCO3)CC1 [Compound 13]

Second part, the compound before the results:

Compound | EC50 [µM] | % Efficacy | Emax [%]
1-(Benzo[d][1,3]dioxol-6-yl)-N-(5-((R)-(2-chlorophenyl)((R)-3-hydroxypyrrolidin-1-yl)methyl)thiazol-2-yl)cyclopropanecarboxamide [Compound 2] | 2 to 20 | +++ (“+++” means >100%) | –
1-(Benzo[d][1,3]dioxol-6-yl)-N-(5-((S)-(2-chlorophenyl)((R)-3-hydroxypyrrolidin-1-yl)methyl)thiazol-2-yl)cyclopropanecarboxamide [Compound 1] | < 2 | +++ (“+++” means >100%) | –
O=C(Nc1ncc([C@@H](c2ccc(Cl)c(Cl)c2)N2CC[C@@H](O)C2)s1)C1(c2ccc3c(c2)OCO3)CC1 [Compound 6] | < 2 | – | > 100
Cc1nc(NC(=O)C2(c3ccc4c(c3)OCO4)CC2)sc1[C@H](c1ccccc1Cl)N1CC[C@H](O)C1 [Compound 8] | < 2 | – | > 100
Cc1nc(NC(=O)C2(c3ccc4c(c3)OC(F)(F)O4)CC2)sc1[C@@H](c1ccccc1Cl)N1CC[C@H](O)C1 [Compound 9] | < 2 | – | > 100
Cc1nc(NC(=O)C2(c3ccc4c(c3)OC(F)(F)O4)CC2)sc1[C@H](c1ccccc1Cl)N1CC[C@H](O)C1 [Compound 10] | < 2 | – | > 100
O=C(Nc1ncc([C@H](c2ccccc2Cl)N2CC[C@@H](O)C2)s1)C1(c2ccc3c(c2)OCO3)CC1 [Compound 12] | < 2 | – | 25 to 100
